{"source": "patent EP2992885A2", "about": "“METHOD FOR INHIBITING A LIVER DISEASE” (priority 2014, dated 2016)", "key": {"ROCK II": {"test_system": "ROCK II", "test": "ROCK II expression in HepG2 cells", "type": "cell-based", "description": "HepG2 cells were treated with various concentrations of drugs for 24 hours. Reactions were terminated by washing twice with cold PBS, and the cells were then harvested. Proteins in the whole-cell lysate were homogenized in an ice-cold lysis buffer and a protease inhibitor (Sigma-Aldrich, St. Louis, MO, U.S.A.). The homogenate was centrifuged at 90, 000 g for 15 minutes at 4°C, and supernatant was recovered as the total cellular protein. Cytosolic and membrane fractions of HepG2 cells were prepared using a CNM (Cytosol Nuclear Membrane) compartment protein extraction kit (BioChain Institute Inc., Hayward, CA, U.S.A.) according to the manufacturer's instructions. All of the fractionated protein solutions were stored at -80°C until analysis. To measure the expression levels of proteins by drugs, the total cell protein was extracted after incubation with treatments for 24 hours and then Western blotting analysis was performed as described previously.\nTo confirm that RhoA antagonist C3 exoenzyme (5 µg/ml) and ROCK antagonist Y27632 (10 µM), dissolved in 10% popyleneglycol, can inactivate_the expression of ROCK II, they were added to cells in culture for 24 hours, respectively, to measure the expression of ROCK II and related expressions of PPARγ and ABCA-1 in HepG2 cells."}, "mice fed with HFD": {"test_system": "mice fed with HFD", "test": "HFD-fed mice, 8 weeks: serum and liver lipid levels, body weight, food intake", "type": "in vivo, C57BL/6J male mice", "design": "TG / Tot. chol. / HDL chol. / LDL chol.: unit not given here", "details": "for HDL chol. / LDL chol. / TG / Tot. chol.: Table 2, HFD mice, unit not given in Table 2 (Table 1 gives mg/dl); for HDL (HDL cholesterol) / LDL (LDL cholesterol) / TG of liver (Triacylglycerol) / TG in serum (Triacylglycerol): HFD for 8 weeks; for TG in serum (Triacylglycerol): means±SE", "description": "(§1) During the 2 month experiments, mice fasted for one night before the experiment was changed from a standard diet (STD) to a HFD and then the mice were randomly divided into 5 groups, including 2 control and 3 treatment groups. Six mice were used in each group. The control mice received either STD or HFD and the protection group was fed HFD with KMUP-1 HCl (2.5 and 5 mg/kg/day), simvastatin (5 mg/kg/day) or a target drug administered by gavage to assess weight gain followed by biochemical analysis. Liver from the protection group supplemented with KMUP-1 HCl (1 mg/kg/day) were used to determine the HMG CoA reductase expression.\nWithin 2 months, the 3 day food intake average for each animal was measured. The weight gain and plasma lipid levels of each group were determined and compared to the non-treatment control group. […] Agents used in the assays were obtained from Merck & Co. (Kenilworth, NJ, U.S.A.). Triglyceride (TG), total cholesterol, HDL cholesterol and LDL cholesterol in mouse serum were measured by methods used in the clinic. To measure the hepatic TG, isolated liver were cut into small chips."}, "HMG CoA reductase": {"test_system": "HMG CoA reductase", "test": "HFD-induced HMG CoA reductase expression in liver, 8 weeks", "type": "in vivo, mice", "details": "HFD 8 weeks; KMUP-1 HCl 2.5, 5 mg/kg; simvastatin 5 mg/kg, by gavage", "description": "as §1, with “Liver from the protection group supplemented with KMUP-1 HCl (1 mg/kg/day) were used to determine the HMG CoA reductase expression.” left out\nThe obtained protein extract was boiled to a ratio of 4:1 with a sample buffer (Tris 100 mM, pH 6.8, glycerol 20%, SDS 4% and bromophenol blue 0.2%).\nThe blot was then incubated with anti-mouse or anti-goat IgG linked to alkaline phosphatase (1:1000) for 1 hour."}}, "note": "Where a name gives a salt, the structure may show the parent alone.", "data": [{"compound": "8-(p-chloro-phenylthio)guanosine-3,5-monophosphorothioate [Rp-8-pCPT-cGMPS]", "values": [{"measurement": "ROCK II expression (Fig. 24B)", "setting": "ROCK II; HepG2, 10µM cGMP antagonist alone", "result": "increased"}]}, {"compound": "Cn1c(=O)c2c(ncn2CCN2CCN(c3ccccc3Cl)CC2)n(C)c1=O", "note": "[KMUP-1 HCl, 7-[2-[4-(2-chlorophenyl)piperazinyl]ethyl]-1,3-dimethylxanthine HCl complex]", "values": [{"measurement": "HDL chol.", "setting": "mice fed with HFD; Dose 2.5 mg/kg", "result": "103.6± 4.2"}, {"measurement": "LDL chol.", "setting": "mice fed with HFD; Dose 2.5 mg/kg", "result": "14.2± 1.4"}, {"measurement": "TG", "setting": "mice fed with HFD; Dose 2.5 mg/kg", "result": "74.5± 5.1"}, {"measurement": "Tot. chol.", "setting": "mice fed with HFD; Dose 2.5 mg/kg", "result": "133± 5.1"}, {"measurement": "HDL chol.", "setting": "mice fed with HFD; Dose 5 mg/kg", "result": "118.3± 5.7"}, {"measurement": "LDL chol.", "setting": "mice fed with HFD; Dose 5 mg/kg", "result": "14.2± 2.2"}, {"measurement": "TG", "setting": "mice fed with HFD; Dose 5 mg/kg", "result": "72.67± 4.7"}, {"measurement": "Tot. chol.", "setting": "mice fed with HFD; Dose 5 mg/kg", "result": "125.5± 9.8"}, {"measurement": "HFD-induced downregulation of HMG CoA reductase expression in liver", "setting": "HMG CoA reductase", "result": "significantly reversed"}]}, {"compound": "Cn1c(=O)c2c(ncn2CCN2CCN(c3ccccc3Cl)CC2)n(C)c1=O", "note": "[KMUP-1, 7-[2-[4-(2-chlorophenyl)piperazinyl]ethyl]-1,3-dimethyl xanthine]", "values": [{"measurement": "HDL (HDL cholesterol)", "setting": "mice fed with HFD; 2.5mg/kg by gavage", "result": "103.6 ± 4.2", "unit": "mg/dL"}, {"measurement": "LDL (LDL cholesterol)", "setting": "mice fed with HFD; 2.5mg/kg by gavage", "result": "14.2 ± 1.4", "unit": "mg/dL"}, {"measurement": "TG of liver (Triacylglycerol)", "setting": "mice fed with HFD; 2.5mg/kg by gavage", "result": "28.4 ± 3.6", "unit": "mg/dL"}, {"measurement": "TG in serum (Triacylglycerol)", "setting": "mice fed with HFD; 2.5mg/kg by gavage", "result": "74.5 ± 5.1", "unit": "mg/dL"}, {"measurement": "HDL (HDL cholesterol)", "setting": "mice fed with HFD; 5mg/kg by gavage", "result": "118.3 ± 5.7", "unit": "mg/dL"}, {"measurement": "LDL (LDL cholesterol)", "setting": "mice fed with HFD; 5mg/kg by gavage", "result": "14.2 ± 2.2", "unit": "mg/dL"}, {"measurement": "TG of liver (Triacylglycerol)", "setting": "mice fed with HFD; 5mg/kg by gavage", "result": "26.12 ± 3.1", "unit": "mg/dL"}, {"measurement": "TG in serum (Triacylglycerol)", "setting": "mice fed with HFD; 5mg/kg by gavage", "result": "72.7 ± 4.7", "unit": "mg/dL"}]}, {"compound": "C[C@@H](N)[C@H]1CC[C@H](C(=O)Nc2ccncc2)CC1", "note": "[Y27632]", "values": [{"measurement": "ROCK II expression (Fig. 24A)", "setting": "ROCK II; HepG2, 24 hours, C3 exoenzyme 5 µg/ml, Y27632 10 µM", "result": "reduced"}]}, {"compound": "CCC(C)(C)C(=O)O[C@H]1C[C@@H](C)C=C2C=C[C@H](C)[C@H](CC[C@@H]3C[C@@H](O)CC(=O)O3)[C@H]21", "note": "[simvastatin, reference compound]", "values": [{"measurement": "HDL (HDL cholesterol)", "setting": "mice fed with HFD; 5mg/kg by gavage", "result": "103.2 ± 2.5", "unit": "mg/dL"}, {"measurement": "LDL (LDL cholesterol)", "setting": "mice fed with HFD; 5mg/kg by gavage", "result": "15.3 ± 1.3", "unit": "mg/dL"}, {"measurement": "TG of liver (Triacylglycerol)", "setting": "mice fed with HFD; 5mg/kg by gavage", "result": "35.5±2.** mg/dl"}, {"measurement": "TG in serum (Triacylglycerol)", "setting": "mice fed with HFD; 5mg/kg by gavage", "result": "82.7 ± 6.3", "unit": "mg/dL"}]}]}
